Ends that are not written are not given here. Peptide text beside a SMILES is read from it. * marks the point of attachment. Biotin = O=C1N[C@H]2[C@H](CS[C@H]2CCCCC(=O)*)N1
How the values were obtained:
Assay in all cases: G' assay (10 uM PL peptide), results of TABLE 7 and TABLE 12
Format in all cases: binding
[1] = molecular target: T1, PDZ protein (GST-PDZ fusion) (Homo sapiens, UniProt P29074); details: PDZ PTN-4, PDZ Domain 1
T1 construct: made in house; host or cells: E. coli (DH5alpha, BL21 or JM109)
T1 sequence (P29074 1-926): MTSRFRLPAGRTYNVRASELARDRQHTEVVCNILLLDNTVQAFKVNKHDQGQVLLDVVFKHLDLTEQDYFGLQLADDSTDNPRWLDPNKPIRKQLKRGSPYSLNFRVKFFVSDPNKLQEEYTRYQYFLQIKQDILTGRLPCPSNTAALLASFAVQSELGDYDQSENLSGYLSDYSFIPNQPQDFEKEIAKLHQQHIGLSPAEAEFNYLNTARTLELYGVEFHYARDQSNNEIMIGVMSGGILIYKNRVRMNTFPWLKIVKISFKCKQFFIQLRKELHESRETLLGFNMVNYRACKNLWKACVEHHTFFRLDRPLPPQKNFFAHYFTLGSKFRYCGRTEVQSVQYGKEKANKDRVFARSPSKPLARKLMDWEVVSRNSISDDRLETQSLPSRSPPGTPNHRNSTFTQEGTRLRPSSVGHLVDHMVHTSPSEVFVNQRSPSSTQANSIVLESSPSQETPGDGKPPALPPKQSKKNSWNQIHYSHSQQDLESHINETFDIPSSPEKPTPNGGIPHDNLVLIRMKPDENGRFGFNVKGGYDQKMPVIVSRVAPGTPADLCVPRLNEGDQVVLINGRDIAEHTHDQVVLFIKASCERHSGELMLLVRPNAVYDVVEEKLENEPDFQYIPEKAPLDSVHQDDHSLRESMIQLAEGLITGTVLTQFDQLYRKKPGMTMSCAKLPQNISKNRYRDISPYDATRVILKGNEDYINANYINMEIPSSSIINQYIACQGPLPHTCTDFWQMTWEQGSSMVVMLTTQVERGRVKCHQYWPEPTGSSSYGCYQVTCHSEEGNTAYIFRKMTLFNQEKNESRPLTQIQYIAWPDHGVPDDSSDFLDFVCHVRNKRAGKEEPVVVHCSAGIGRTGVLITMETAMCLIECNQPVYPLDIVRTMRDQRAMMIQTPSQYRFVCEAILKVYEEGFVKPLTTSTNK
Procedure, shortened: (§1)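 Same steps as the G-zero format, apart from a peptide concentration of 10 uM in place of 20 uM in step 2. Amino-terminally biotinylated PL peptides bind GST-PDZ fusions, and retained peptide is quantified by 450 nm absorbance.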

[2] = molecular target: T2, PDZ protein (GST-PDZ fusion) (Homo sapiens, UniProt O00560); details: PDZ hSyntenin, PDZ Domain 1
T2 construct: made in house; host or cells: E. coli (DH5alpha, BL21 or JM109)
T2 sequence (O00560 1-298): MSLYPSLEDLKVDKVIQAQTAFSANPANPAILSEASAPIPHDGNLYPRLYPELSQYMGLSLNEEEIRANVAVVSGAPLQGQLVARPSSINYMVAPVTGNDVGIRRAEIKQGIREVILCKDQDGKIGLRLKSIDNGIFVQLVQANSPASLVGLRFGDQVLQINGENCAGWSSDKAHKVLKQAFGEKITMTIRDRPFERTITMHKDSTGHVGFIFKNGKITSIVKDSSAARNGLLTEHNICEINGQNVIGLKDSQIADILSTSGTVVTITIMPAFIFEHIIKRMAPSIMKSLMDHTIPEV
Procedure, shortened: as §1

[3] = molecular target: T3, PDZ protein (GST-PDZ fusion) (Homo sapiens, UniProt Q9ULJ8); details: PDZ KIAA1222, PDZ Domain 1
T3 construct: made in house; host or cells: E. coli (DH5alpha, BL21 or JM109)
Procedure, shortened: as §1

T3 sequence (Q9ULJ8 whole entry, the tested form may be a part): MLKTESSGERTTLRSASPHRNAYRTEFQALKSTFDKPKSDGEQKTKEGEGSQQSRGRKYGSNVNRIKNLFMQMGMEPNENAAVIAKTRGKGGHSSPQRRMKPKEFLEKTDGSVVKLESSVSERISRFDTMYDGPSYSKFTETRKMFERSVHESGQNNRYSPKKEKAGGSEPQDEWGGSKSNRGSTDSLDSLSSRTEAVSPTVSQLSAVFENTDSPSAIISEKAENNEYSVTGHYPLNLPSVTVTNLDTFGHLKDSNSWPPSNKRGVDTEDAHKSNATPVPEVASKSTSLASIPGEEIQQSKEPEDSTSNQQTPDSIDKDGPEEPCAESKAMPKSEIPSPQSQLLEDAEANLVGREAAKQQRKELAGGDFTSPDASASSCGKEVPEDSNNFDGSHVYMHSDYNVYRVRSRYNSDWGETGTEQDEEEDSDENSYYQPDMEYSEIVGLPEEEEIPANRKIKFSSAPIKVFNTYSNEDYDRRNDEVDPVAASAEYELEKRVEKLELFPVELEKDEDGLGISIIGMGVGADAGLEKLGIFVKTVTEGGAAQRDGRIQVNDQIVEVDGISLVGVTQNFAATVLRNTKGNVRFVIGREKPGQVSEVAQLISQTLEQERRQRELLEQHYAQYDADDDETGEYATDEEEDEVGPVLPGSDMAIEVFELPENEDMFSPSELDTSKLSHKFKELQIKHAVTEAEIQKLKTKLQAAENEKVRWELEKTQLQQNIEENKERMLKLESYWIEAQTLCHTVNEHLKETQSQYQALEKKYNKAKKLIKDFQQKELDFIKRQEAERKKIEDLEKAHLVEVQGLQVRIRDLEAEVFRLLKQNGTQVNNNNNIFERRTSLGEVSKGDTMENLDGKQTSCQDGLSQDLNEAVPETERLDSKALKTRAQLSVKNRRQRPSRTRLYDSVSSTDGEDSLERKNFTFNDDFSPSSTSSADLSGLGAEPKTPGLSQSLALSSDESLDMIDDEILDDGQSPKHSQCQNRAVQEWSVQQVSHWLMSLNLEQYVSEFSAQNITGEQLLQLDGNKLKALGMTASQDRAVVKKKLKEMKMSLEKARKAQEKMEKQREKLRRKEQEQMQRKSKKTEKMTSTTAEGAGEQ

CC(C)C[C@H](NC(=O)[C@H](C)NC(=O)[C@@H](NC(=O)[C@H](CCC(=O)O)NC(=O)[C@H](CCCNC(=N)N)NC(=O)[C@H](CCCNC(=N)N)NC(=O)CNC(=O)[C@H](CCC(N)=O)NC(=O)[C@H](CC(C)C)NC(=O)[C@H](CCCNC(=N)N)NC(=O)CNC(=O)CNC(=O)[C@H](CCCNC(=N)N)NC(=O)[C@H](C)NC(=O)[C@H](CO)NC(=O)[C@H](CCCNC(=N)N)NC(=O)CNC(=O)CNC(=O)[C@H](C)NC(=O)[C@H](C)NC(=O)CCCC[C@@H]1SC[C@@H]2NC(=O)N[C@@H]21)[C@@H](C)O)C(=O)O [HPV E6 33 (modified)] (Biotin-AAGGRSARGGRLQGRRETAL-OH; C-terminus assumed)
Classification [1]: 1 (A450 nm 0-1)

ELLQFCRTPNPALKNGQYWV (Biotin-ELLQFCRTPNPALKNGQYWV)
Classification [2]: 2 (A450 nm 1-2)

CSCC[C@H](NC(=O)[C@H](C)NC(=O)[C@H](CCCNC(=N)N)NC(=O)CNC(=O)[C@@H](NC(=O)[C@H](Cc1c[nH]c2ccccc12)NC(=O)[C@H](CCCNC(=N)N)NC(=O)CNC(=O)CCCC[C@@H]1SC[C@@H]2NC(=O)N[C@@H]21)[C@@H](C)O)C(=O)N[C@@H](CO)C(=O)N[C@@H](C)C(=O)N[C@@H](Cc1c[nH]c2ccccc12)C(=O)N[C@@H](CCCCN)C(=O)N1CCC[C@H]1C(=O)N[C@H](C(=O)N[C@@H](CCCNC(=N)N)C(=O)N[C@@H](CCCNC(=N)N)C(=O)N[C@@H](CCC(=O)O)C(=O)N[C@H](C(=O)N[C@@H](CCC(=O)O)C(=O)N[C@H](C(=O)O)C(C)C)[C@@H](C)O)[C@@H](C)O [HPV E6 #35 (modified)] (Biotin-GRWTGRAMSAWKPTRRETEV-OH; C-terminus assumed)
Classification [1]: 4 (A450 nm 3-4)

QATSRNGHSARQHVVADTEL (Biotin-QATSRNGHSARQHVVADTEL) [CD34]
Classification [1]: 1 (A450 nm 0-1)

TQGFPGPATWRRISSLESEV
Classification [1]: 2 (A450 nm 1-2)

CC[C@H](C)[C@H](NC(=O)[C@H](Cc1ccc(O)cc1)NC(=O)[C@@H](NC(=O)[C@@H]1CCCN1C(=O)[C@H](CCC(N)=O)NC(=O)[C@H](CCC(=O)O)NC(=O)[C@H](CCC(N)=O)NC(=O)[C@H](C)NC(=O)[C@@H](NC(=O)[C@H](CC(C)C)NC(=O)[C@H](CC(C)C)NC(=O)[C@H](CCCNC(=N)N)NC(=O)[C@H](Cc1ccc(O)cc1)NC(=O)[C@H](CCSC)NC(=O)[C@H](C)NC(=O)[C@H](C)NC(=O)[C@@H]1CCCN1C(=O)[C@H](CCSC)NC(=O)[C@@H](NC(=O)[C@H](CCCCN)NC(=O)CCCC[C@@H]1SC[C@@H]2NC(=O)N[C@@H]21)[C@@H](C)O)[C@@H](C)O)C(C)C)C(=O)O [MINT-1] (Biotin-KTMPAAMYRLLTAQEQPVYI-OH; C-terminus assumed)
Classification [3]: 1 (A450 nm 0-1) | Classification [2]: 3 (A450 nm 2-3)

KTMPAAMFRLLTGQETPLYI (Biotin-KTMPAAMFRLLTGQETPLYI) [MINT-2]
Classification [3]: 1 (A450 nm 0-1) | Classification [2]: 2 (A450 nm 1-2)

CC[C@H](C)[C@H](NC(=O)[C@H](CCCCN)NC(=O)[C@@H](NC(=O)[C@H](CO)NC(=O)[C@@H]1CCCN1C(=O)[C@H](Cc1ccccc1)NC(=O)[C@@H](NC(=O)[C@@H](NC(=O)[C@H](CCCNC(=N)N)NC(=O)[C@H](CCC(=O)O)NC(=O)[C@H](CC(C)C)NC(=O)[C@H](CC(C)C)NC(=O)[C@H](CC(C)C)NC(=O)[C@@H](NC(=O)CNC(=O)[C@@H](NC(=O)CCCC[C@@H]1SC[C@@H]2NC(=O)N[C@@H]21)C(C)C)[C@@H](C)O)C(C)C)[C@@H](C)CC)C(C)C)C(=O)N[C@@H](C)C(=O)N[C@H](C(=O)N[C@@H](CC(C)C)C(=O)N[C@H](C(=O)O)C(C)C)[C@@H](C)O [Adenovirus E4 Type9]
Classification ([3]; PL peptide 10 uM): 1 (A450 nm 0-1)

CC[C@H](C)[C@H](NC(=O)[C@H](CCC(N)=O)NC(=O)CCCC[C@@H]1SC[C@@H]2NC(=O)N[C@@H]21)C(=O)N[C@@H](CO)C(=O)N1CCC[C@H]1C(=O)NCC(=O)NCC(=O)N[C@@H](CC(C)C)C(=O)N[C@@H](CCC(=O)O)C(=O)N1CCC[C@H]1C(=O)N1CCC[C@H]1C(=O)N[C@@H](CO)C(=O)N[C@@H](CCC(=O)O)C(=O)N[C@@H](CCCCN)C(=O)N[C@@H](Cc1c[nH]cn1)C(=O)N[C@@H](Cc1ccccc1)C(=O)N[C@@H](CCCNC(=N)N)C(=O)N[C@@H](CCC(=O)O)C(=O)N[C@H](C(=O)N[C@@H](CCC(=O)O)C(=O)N[C@H](C(=O)O)C(C)C)[C@@H](C)O [Tax]
Classification [1]: 2 (A450 nm 1-2)

From patent US20050282743A1, “Molecular interactions in cells” (Arbor Vita Corporation, priority 2001, published 2005)
